Experimental findings from patent US11279735B2, “Cyclic peptide antibiotics” (priority 2017, dated 2022) are described below.

Values after ≈ are worked out from the molar mass of the structure shown.

For one assay, the system named is Escherichia coli (E. coli) strain CFT073 ATCC 700928. In kind it is cell-based. Particulars: ATCC 700928, 22 h. The protocol: In vitro antimicrobial activity of each compound was determined by measuring minimal inhibitor concentrations (MICs) using the broth micro-dilution technique as approved by the Clinical and Laboratory Standards Institute (CLSI) (Methods for Dilution Antimicrobial Susceptibility Tests for Bacteria that Grow Aerobically; Approved Standard—Eighth Edition. CLSI document M07-A8. Wayne, Pa.: Clinical and Laboratroy Standards; 2009). Antibacterial activity was measure against Escherichia coli (E. coli) strain CFT073 ATCC 700928, which is a clinically relevant Gram-negative strain. Cells were inoculated onto plates of Mueller Hinton Agar and grown at 37° C. for 16-18 hours. Inocula suspensions were prepared by scraping cells into 1 mL of testing media (Mueller Hinton II cation adjusted Broth supplemented with 0.002% v/v Tween-80) and diluting to a final OD600 nm of 0.01.
Test compounds were prepared in DMSO at a concentration of 100 uM The compounds were tested under several different dilution formats and the data are reported in Tables 6, 7 and 8. In protocol 1, the compound stocks were diluted into testing media at a concentration of 64 μg/ml and serial 2-fold dilutions were made in the same media, in 96-well U bottom microtiter dishes, for a total of 10 compound concentrations. In protocol 2, the compound stocks were diluted into testing media at a concentration of 4 μg/mL and serial 2-fold dilutions were made in the same media, in 96-well U bottom microtiter dishes, for a total of 10 compound concentrations. In protocol 3, compound stocks were diluted into testing media at a concentration of 0.5 μg/mL, with serial 2-fold dilutions conducted as described above. In protocol 4, compound stocks were diluted into testing media at a concentration of 0.13 μg/mL, with serial 2-fold dilutions conducted as described above. Inocula suspensions were added to the 2-fold serial dilutions of test compounds to a final density of OD OD600 nm of 0.0005 and incubated at 35° C. for 22 hours.
In general, MIC refers to the smallest concentration in the dilution series that meets the test's criterion for growth inhibition. A high value points to a need for much substance. As to `CCCCCCCCCC[C@H]1OC(=O)CNC(=O)[C@H](CCO)NC(=O)[C@H](CN)NC(=O)[C@H]([C@H](C)CC)NC(=O)[C@H](CC(C)C)N(C)C(=O)[C@@H]1C` [Example 10, (6S,9S,12S,15S,18R,19R)-9-(aminomethyl)-19-decyl-6-(2-hydroxyethyl)-15-isobutyl-16,18-dimethyl-12-[(1R)-1-methylpropyl]-1-oxa-4,7,10,13,16-pentazacyclononadecane-2,5,8,11,14,17-hexone], the MIC was found to be 6.3 µM (≈ 4.48 µg/mL).

As for `CCCCCC[C@H]1OC(=O)CNC(=O)[C@H](CO)NC(=O)[C@H](CN)NC(=O)[C@H]([C@H](C)CC)NC(=O)[C@H](CC(C)C)N(C)C(=O)[C@@H]1C` [Example 11, (6S,9S,12S,15S,18R,19R)-9-(aminomethyl)-19-hexyl-6-(hydroxymethyl)-15-isobutyl-16,18-dimethyl-12-[(1R)-1-methylpropyl]-1-oxa-4,7,10,13,16-pentazacyclononadecane-2,5,8,11,14,17-hexone], the minimal inhibitory concentration (MIC) is 25 µM (≈ 16 µg/mL).

On to `CCCCCCCCCC[C@H]1OC(=O)CNC(=O)[C@H](CO)NC(=O)[C@H](CN)NC(=O)[C@H]([C@H](C)CC)NC(=O)[C@H](CC(C)C)N(C)C(=O)[C@@H]1C` [Example 12, (6S,9S,12S,15S,18R,19R)-9-(aminomethyl)-19-decyl-6-(hydroxymethyl)-15-isobutyl-16,18-dimethyl-12-[(1R)-1-methylpropyl]-1-oxa-4,7,10,13,16-pentazacyclononadecane-2,5,8,11,14,17-hexone], for which the MIC turned out to be 4.7 µM (≈ 3.28 µg/mL).

The molecule `CCCCCC[C@H]1OC(=O)CNC(=O)[C@H](CCO)NC(=O)[C@H](CN)NC(=O)[C@H]([C@H](C)CC)NC(=O)[C@H](CC(C)C)N(C)C(=O)[C@@H]1C` [Example 13, (6S,9S,12S,15S,18R,19R)-9-(aminomethyl)-19-hexyl-6-(2-hydroxyethyl)-15-isobutyl-16,18-dimethyl-12-[(1R)-1-methylpropyl]-1-oxa-4,7,10,13,16-pentazacyclononadecane-2,5,8,11,14,17-hexone] returned a minimal inhibitory concentration (MIC) of 50 µM (≈ 32.7 µg/mL).

`CCCCCCCCCC[C@H]1OC(=O)CNC(=O)[C@H]([C@H](C)O)NC(=O)[C@H](CN)NC(=O)[C@H]([C@H](C)CC)NC(=O)[C@H](CCC)N(C)C(=O)[C@@H]1C` [Example 14, (6S,9S,12S,15S,18R,19R)-9-(aminomethyl)-19-decyl-6-[(1S)-1-hydroxyethyl]-16,18-dimethyl-12-[(1R)-1-methylpropyl]-15-propyl-1-oxa-4,7,10,13,16-pentazacyclononadecane-2,5,8,11,14,17-hexone] showed an MIC of 3.1 µM (≈ 2.16 µg/mL).

Consider `CCCCCCCCCC[C@H]1OC(=O)CNC(=O)[C@H]([C@H](C)O)NC(=O)[C@H](CN)NC(=O)[C@H]([C@H](C)CC)NC(=O)[C@H](CCC(C)C)N(C)C(=O)[C@@H]1C` [Example 15, (6S,9S,12S,15S,18R,19R)-9-(aminomethyl)-19-decyl-6-[(1S)-1-hydroxyethyl]-15-isopentyl-16,18-dimethyl-12-[(1R)-1-methylpropyl]-1-oxa-4,7,10,13,16-pentazacyclononadecane-2,5,8,11,14,17-hexone], for which the minimal inhibitory concentration (MIC) worked out at 6.3 µM (≈ 4.57 µg/mL).

Regarding `CCCCCCCCCC[C@H]1OC(=O)CNC(=O)[C@H]([C@H](C)O)NC(=O)[C@H](CN)NC(=O)[C@H]([C@H](C)CC)NC(=O)[C@H](CC2CCC2)N(C)C(=O)[C@@H]1C` [Example 16, (6S,9S,12S,15S,18R,19R)-9-(aminomethyl)-15-(cyclobutylmethyl)-19-decyl-6-[(1S)-1-hydroxyethyl]-16,18-dimethyl-12-[(1R)-1-methylpropyl]-1-oxa-4,7,10,13,16-pentazacyclononadecane-2,5,8,11,14,17-hexone], the minimal inhibitory concentration (MIC) was 6.3 µM (≈ 4.55 µg/mL).

The molecule `CCCCCCCCCC[C@H]1OC(=O)CNC(=O)[C@H](CN)NC(=O)[C@H](CO)NC(=O)[C@H]([C@@H](C)CC)NC(=O)[C@H](CC(C)C)N(C)C(=O)[C@@H]1C` [Example 19, (6S,9S,12S,15S,18R,19R)-6-(aminomethyl)-19-decyl-9-(hydroxymethyl)-15-isobutyl-16,18-dimethyl-12-[(1S)-1-methylpropyl]-1-oxa-4,7,10,13,16-pentazacyclononadecane-2,5,8,11,14,17-hexone] yielded an MIC of 25 µM (≈ 17.4 µg/mL).

For `CCCCCCCCCC[C@H]1OC(=O)CNC(=O)[C@H](CCN)NC(=O)[C@H](CO)NC(=O)[C@H]([C@@H](C)CC)NC(=O)[C@H](CC(C)C)N(C)C(=O)[C@@H]1C` [Example 20, (6S,9S,12S,15S,18R,19R)-6-(2-aminoethyl)-19-decyl-9-(hydroxymethyl)-15-isobutyl-16,18-dimethyl-12-[(1S)-1-methylpropyl]-1-oxa-4,7,10,13,16-pentazacyclononadecane-2,5,8,11,14,17-hexone], the minimal inhibitory concentration (MIC) is 50 µM (≈ 35.5 µg/mL).

Molecule `CCCCCCCCCC[C@H]1OC(=O)CNC(=O)[C@H](C(C)(C)O)NC(=O)[C@H](CO)NC(=O)[C@H]([C@@H](C)CC)NC(=O)[C@H](CC(C)C)N(C)C(=O)[C@@H]1C` [Example 21, (6S,9S,12S,15S,18R,19R)-19-decyl-9-(hydroxymethyl)-6-(1-hydroxy-1-methyl-ethyl)-15-isobutyl-16,18-dimethyl-12-[(1S)-1-methylpropyl]-1-oxa-4,7,10,13,16-pentazacyclononadecane-2,5,8,11,14,17-hexone] displayed an MIC of 50 µM (≈ 36.3 µg/mL).

As for `CCCCCCCCCC[C@H]1OC(=O)CNC(=O)[C@H]([C@H](C)O)NC(=O)[C@H](CO)NC(=O)[C@H]([C@@H](C)CC)NC(=O)[C@H](CC(C)C)N(C)C(=O)[C@@H]1C` [Example 22, (6S,9S,12S,15S,18R,19R)-19-decyl-6-[(1S)-1-hydroxyethyl]-9-(hydroxymethyl)-15-isobutyl-16,18-dimethyl-12-[(1S)-1-methylpropyl]-1-oxa-4,7,10,13,16-pentazacyclononadecane-2,5,8,11,14,17-hexone], the minimal inhibitory concentration (MIC) amounted to 13 µM (≈ 9.26 µg/mL).

The molecule `CCCCCCCCCC[C@H]1OC(=O)CNC(=O)[C@H]([C@H](C)O)NC(=O)[C@H](CN)NC(=O)[C@H]([C@@H](C)CC)NC(=O)[C@H](CC(C)C)N(C)C(=O)[C@@H]1C` [Example 23, (6S,9S,12S,15S,18R,19R)-9-(aminomethyl)-19-decyl-6-[(1S)-1-hydroxyethyl]-15-isobutyl-16,18-dimethyl-12-[(1S)-1-methylpropyl]-1-oxa-4,7,10,13,16-pentazacyclononadecane-2,5,8,11,14,17-hexone] came in with an MIC of 3.1 µM (≈ 2.2 µg/mL).

In turn, `CCCCCCCCCC[C@H]1OC(=O)CNC(=O)[C@H](CC)NC(=O)[C@H](CO)NC(=O)[C@H]([C@@H](C)CC)NC(=O)[C@H](CC(C)C)N(C)C(=O)[C@@H]1C` [Example 24, (6S,9S,12S,15S,18R,19R)-19-decyl-16-ethyl-9-(hydroxymethyl)-15-isobutyl-16,18-dimethyl-12-[(1S)-1-methylpropyl]-1-oxa-4,7,10,13,16-pentazacyclononadecane-2,5,8,11,14,17-hexone] yielded a minimal inhibitory concentration (MIC) of 13 µM (≈ 9.05 µg/mL).

Still in this assay, the particulars now being: E. coli CFT073 ATCC 700928; Mueller Hinton II cation adjusted Broth with 0.002% v/v Tween-80; 35° C. for 22 hours; lowest concentration that completely prevented bacterial growth.
`CCCCCCCCCC[C@H]1OC(=O)CNC(=O)[C@H](CO)NC(=O)[C@H](CO)NC(=O)[C@H]([C@@H](C)CC)NC(=O)[C@H](CC(C)C)N(C)C(=O)[C@@H]1C` [Example 18, (6S,9S,12S,15S,18R,19R)-19-decyl-6,9-bis(hydroxymethyl)-15-isobutyl-16,18-dimethyl-12-[(1S)-1-methylpropyl]-1-oxa-4,7,10,13,16-pentazacyclononadecane-2,5,8,11,14,17-hexone] yielded an MIC of 19 µM (≈ 13.3 µg/mL).
